Results on 18 molecules are retold here after US7285547B2, “Amidinophenylalanine derivatives as thrombin inhibitors” (LEK Pharmaceuticals d.d., priority 2000, dated 2007).

SMILES strings stand for the structures. Bounds are passed on as bounds.

In one data set the target is T1, human thrombin (Homo sapiens, UniProt P00734).
T1 construct: Human thrombin (308 NIH; Sigma); purchased Sigma
Put plainly: Determination of thrombin Ki (chromogenic substrate S-2238). In kind it is biochemical. Here is the method: (§1) The enzyme inhibitory effect of the compounds can be identified by determination of inhibition constant Ki. It denotes the degree of dissociation of the enzyme-inhibitor complex. Low dissociation constant means high potency of inhibitor. Ki can be determined during reaction of the enzyme with a specific chromogenic substrate which under hydrolysis by the enzyme develops color. Reaction in time is recorded by spectrophotometry and Ki is calculated from kinetic parameters (Vmax, Km, reaction rate).
1. Determination of Thrombin Ki
The ability of a compound to act as an inhibitor of human thrombin catalytic activity was assessed by determination of Ki.
A mixture of 50 μL of buffer, 50 μL of inhibitor in water (final concentrations from 10 to 100 μM) and 50 μL of thrombin (0.5 NIH U/mL f.c.) was incubated for 15 minutes at room temperature.
Thrombin activity was determined from the change in absorbance in the linear part of the velocity graph. […] The Km for the substrate was determined under the test conditions with at least 6 substrate concentrations varying around Km and calculated with the non-linear regression programme Curve expert.

Another data set addresses trypsin / thrombin. Briefly: Selectivity to thrombin (ratio of Ki for trypsin to Ki for thrombin). In kind it is biochemical. The method, then:
3. Selectivity to Thrombin
By the use of other serine protease like trypsin with the appropriate chromogenic substrate, selectivity of inhibitors with respect to thrombin was determined. Selectivity of an inhibitor is expressed as a ratio of Ki for trypsin to Ki for thrombin.

The next data set addresses T2, trypsin (UniProt P00760).
T2 construct: Trypsin (6000 E/mg prot; Sigma): dissolved in distilled water to give a stock solution of 300 E/mL
T2 sequence (P00760 1-246): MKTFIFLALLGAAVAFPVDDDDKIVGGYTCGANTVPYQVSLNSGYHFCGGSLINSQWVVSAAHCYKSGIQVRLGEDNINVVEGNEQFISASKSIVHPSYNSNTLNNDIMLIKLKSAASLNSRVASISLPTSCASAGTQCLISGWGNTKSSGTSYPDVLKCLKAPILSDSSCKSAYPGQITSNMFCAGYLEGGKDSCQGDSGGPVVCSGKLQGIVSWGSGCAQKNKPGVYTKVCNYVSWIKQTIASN
Put plainly: Determination of trypsin Ki (chromogenic substrate S-2222). Type of data set: biochemical. The following applies: S-2222, 25° C. Here is the method: as §1
2. Determination of Trypsin Ki
The ability of a compound to act as an inhibitor of trypsin catalytic activity was assessed by determination of Ki.
50 μL of buffer, 50 μL of test compound in water (final concentrations from 50 to 300 μM) and 50 μL of trypsin (3 mE/mL f.c.) were incubated for 15 minutes at room temperature.
Trypsin activity was determined from the change in absorbance in the linear part of velocity graph. […] The Km for the substrate was determined under test conditions with at least 6 substrate concentrations varying around Km and calculated with the non-linear regression program Curve expert.

Data set [1] deals with thrombus formation in a venous thrombosis model in the rat. Briefly: Stasis-induced thrombosis (venous thrombosis model). Type of data set: in vivo. Conditions: iv, i.v. 5 min before thrombosis induction, tissue factor plus stasis, read-out: Stasis-induced thrombosis (ED50 ± SD). The method, then:
1. Stasis-Induced Thrombosis
Using a combination of thrombogenic challenge (0.045 ng/kg of tissue factor) and stasis, compounds were tested for their abillity to affect thrombus formation in a venous thrombosis model in the rat.
Thrombus formation by a combination of stasis and hypercoagulability was induced as described by Vogel et al. (Thromb. Res., 1989, 54, 399410). Male sprague-Dawley rats (250-300 g) were anaesthetized with sodium pentobarbitone (30 mg/kg, i.p.). The abdomen of the animals was surgically opened and after careful dissection, the vena cava was exposed and dissected free from surrounding tissue. Saline, or the various compounds were administered i.v. 5 min before thrombosis induction. […] Human tissue factor (0.045 ng/kg, i.v.) was injected into the dorsal vein of the penis. Ten seconds after the end of the injection, stasis were established by tightening the […] the proximal and then the distal. The abdominal cavity was provisionally closed and stasis was maintained for 20 minutes. The cavity was then reopened, the ligated segment was opened longitudinally and the thrombus formed was removed, rinsed, blotted on filter paper, dried overnight at 60° C. and weighed. Under these experimental conditions, control thrombus weight was 5.5±0.1 mg (n=15).

Data set [2] concerns transection of the tail of rats. Put plainly: Bleeding time (transection of the tail). In kind it is in vivo. Conditions: rat tail transection, 1 mg/kg i.v. 5 min before transection. Here is the method:
The hemorrhagic risk associated to a treatment with selected compounds were determined using an experimental model of bleeding: transection of the tail of rats.
Bleeding time was determined by transection of the tail, 2 mm from the tip, of […] rats (30 mg/kg i.p.). The compounds were injected i.v. at the indicated doses 5 min before tail transection. Blood was carefully blotted every 15 s on a filter paper. Haemostasis was considered to be achieved when no more blood stain was observed over 1 min.

The test system of data set [3] is normal pooled human plasma. Briefly: Prothrombin time (PT) coagulation assay. Type of data set: biochemical. Conditions: concentration of inhibitor that doubled the clotting time. Here is the method:
(§2) The Anticoagulant effect of thrombin inhibitors was measured by thrombin time (TT), activated partial thromboplastin time (aPTT), and prothrombin time (PT) assays. Inhibitors were added to normal pooled human plasma over a range of concentrations and clotting was recorded in an automated coagulometer (Fibrintimer, Dade/Behring). The concentration of inhibitor that doubled the clotting time was determined for each assay.
An optimal amount of thromboplastin and calcium are added to plasma sample and the time of fibrin clot formation wass measured. PT is a rapid, sensitive screening test for coagulation disorders of the extrinsic pathway. It is well suited for the induction and monitoring of oral anticoagulant therapy, for diagnosing genetic or acquired deficiencies in coagulation factors and checking the synthesis performance of the liver in hepatic diseases. PT is prolonged due to extrinsic coagulation factors deficit or due to the presence of inhibitors.
b) Reagents • Thromboplastin (Thromborel S, Dade/Behring): was dissolved in 4 mL of distilled water. […]
Inhibitor (10 μL working solution, concentrations from 5 μM to 100 μM) and pooled plasma (90 μL) were incubated at 37° C. for 5 minutes and then Thromborel S (200 μL) was added. Clot formation was measured with a coagulometer in duplicate.

For data set [4], the system named is normal pooled human plasma. Briefly: Thrombin time (TT) coagulation assay. In kind it is biochemical. The following applies: concentration of inhibitor that doubled the clotting time. Here is the method:
as §2
In a plasma sample thrombin converts fibrinogen into fibrin and the clot is formed. The time for clot formation was measured. Thrombin time is prolonged due to disorders in fibrin polymerisation or due to the presence of thrombin inhibitors.
b) Reagents • Thrombin (Test Thrombin Reagent, 1.5 IU/mL, Dade/Behring): lyophilized bovine thrombin was dissolved in 5 mL of HEPES (25 mmol/L, pH 7.4). The reagent was warmed to 37° C. prior to the assay. • Normal pooled plasma: venous blood from 11 apparently healthy volunteers was collected (1 part 0.11 mol/L sodium citrate solution with 9 parts of blood) and centrifuged immediately at 2000×g for 30 minutes at 4° C. […]
Inhibitors (10 μL working solution, concentrations from 2.5 μM to 100 μM) and pooled plasma (90 μL) were incubated at 37° C. for 5 minutes and then thrombin (200 μL) was added. Clot formation was measured in a coagulometer in duplicate.

Data set [5] deals with normal pooled human plasma. Put plainly: Activated partial thromboplastin time (aPTT) coagulation assay. The following applies: concentration of inhibitor that doubled the clotting time. In kind it is biochemical. Here is the method:
as §2
2. Activated Partial Thromboplastin Time (aPTT)
Incubation of plasma with the optimal quantity of phospholipids and a surface activator leads to activation of factors of the intrinsic coagulation pathway. The addition of calcium ions triggers the coagulation process. The time of fibrin clot formation wass measured. aPTT was used as a screening test for coagulation disorders of the intrinsic coagulation pathway. It is prolonged due to intrinsic coagulation factors deficit or due to the presence of inhibitors.
b) Reagents • Pathromtin SL (Dade/Behring): silicon dioxide particles, vegetable phospholipids, sodium chloride (2.4 g/L), Hepes (14.3 g/L, pH 7.6), sodium azide (<1 g/L). […]
Inhibitor (10 μL working solution, concentrations from 5 μM to 100 μM) and pooled plasma (90 μL) were incubated at 37° C. for 5 minutes. […] The addition of calcium chloride (100 μL) triggered the coagulation process and clot formation was detected with a coagulometer in duplicate.

Where [6] appears, read: text comparison of SI 20025 compound with compound of the present invention.

Broadly, the melting point is the temperature, or range, at which the solid turns liquid. The molecule `COc1ccc2cc(S(=O)(=O)NN(Cc3cccc(/C(N)=N/O)c3)C(=O)N3CCC(C)CC3)ccc2c1` [Example 17, N′-Hydroxy-3-({2-[(6-methoxy-2-naphthyl)sulfonyl]-1-[(4-methyl-1-piperidinyl)carbonyl]hydrazino}methyl)benzenecarboximidamide] gave a melting point of 154 to 156 °C.

`COc1ccc2cc(S(=O)(=O)NN(Cc3cccc(C(=N)N)c3)C(=O)N3CCCCCC3)ccc2c1.Cl` had a melting point of 151 to 154 °C. By Ki is commonly meant the dissociation constant of the complex between target and ligand, obtained from inhibition or displacement. As to `N=C(N)c1ccc(CN(NS(=O)(=O)c2ccc3ccccc3c2)C(=O)N2CCCCCC2)cc1` [compound a, reference compound], the Ki on human thrombin (setting [6]) is 32 nM. With `CC1CCN(C(=O)N(Cc2cccc(C(=N)NO)c2)NS(=O)(=O)c2ccc3ccccc3c2)CC1`, the Ki on human thrombin (human thrombin, S-2238, 25° C.) is 469 nM; at trypsin, > 68300 nM. Also, the “Ki trypsin/Ki thrombin” value at trypsin / thrombin stood at 146. The ED50 is the dose that gives a 50% effect, or the effect in half of the subjects. For `N=C(N)c1cccc(CN(NS(=O)(=O)c2ccc3ccccc3c2)C(=O)N2CCCCCC2)c1` [drawing 50], in [1], the ED50 is 0.07 ± 0.005 mg/kg.

Consider `CC1CCN(C(=O)N(Cc2cccc(C(=N)N)c2)NS(=O)(=O)c2ccc3ccccc3c2)CC1`, for which the Ki at human thrombin (human thrombin, S-2238, 25° C.) was 4 nM; at trypsin, 112 nM. In turn, `COc1ccc2cc(S(=O)(=O)NN(Cc3cccc(C(=N)N)c3)C(=O)N3CCC(C)CC3)ccc2c1.Cl` gave a melting point of 151 to 154 °C. `N/C(=N\O)c1cccc(CN(NS(=O)(=O)c2ccc3ccccc3c2)C(=O)N2CCCCCC2)c1` [drawing 45]: the Ki at human thrombin (human thrombin, S-2238, 25° C.) was 594 nM; on trypsin it was 32200 nM. Also, at trypsin / thrombin, the “Ki trypsin/Ki thrombin” value was determined as 54.

`CC1CCCCN1C(=O)N(Cc1cccc(/C(N)=N/O)c1)NS(=O)(=O)c1ccc2ccccc2c1` (stereo not shown) [Example 13, N′-hydroxy-3-{[1-[(2-methyl-1-piperidinyl)carbonyl]-2-(2-naphthylsulfonyl)hydrazino]methyl}benzenecarboximidamide] returned a melting point of 101 to 103 °C. On the same count and under the same terms, then `COc1ccc2cc(S(=O)(=O)NN(Cc3cccc(/C(N)=N/O)c3)C(=O)N3CCCCCC3)ccc2c1` [Example 23, 3-({1-(1-Azepanylcarbonyl)-2-[(6-methoxy-2-naphthyl)sulfonyl]hydrazino}methyl)-N′-hydroxybenzenecarboximidamide], with 173 to 175 °C. For the molecule `COc1ccc2cc(S(=O)(=O)NN(Cc3cccc(C(=N)NO)c3)C(=O)N3CCCCCC3)ccc2c1`, the “Ki trypsin/Ki thrombin” value at trypsin / thrombin was 29. On trypsin, the affinity corresponds to a Ki of 17900 nM.

`COc1ccc2cc(S(=O)(=O)NN(Cc3cccc(/C(N)=N/O)c3)C(=O)N3CCCCC3C)ccc2c1` (stereo not shown) [Example 15, N′-Hydroxy-3-({2-[(6-methoxy-2-naphthyl)sulfonyl]-1-[(2-methyl-1-piperidinyl)carbonyl]hydrazino}methyl)benzenecarboximidamide] showed a melting point of 172 to 175 °C. As for `N=C(N)Cc1ccc(CN(NS(=O)(=O)c2ccc3ccccc3c2)C(=O)N2CCCCCC2)cc1` [compound b], the Ki at human thrombin (setting [6]) came out at 5 nM. In the case of `N/C(=N\O)c1cccc(CN(NS(=O)(=O)c2ccc3ccccc3c2)C(=O)N2CCCCCC2)c1` [drawing 49], the ED50 in data set [1] is 0.29 ± 0.011 mg/kg. Also, the “Bleeding (fold increase at 1 mg/kg)” value in data set [2] is 3.3 fold increase. For `COc1ccc2cc(S(=O)(=O)NN(Cc3cccc(C(=N)N)c3)C(=O)N3CCCCCC3)ccc2c1`, the Ki was found to be 9 nM on human thrombin (human thrombin, S-2238, 25° C.) and 53 nM on trypsin. The “Ki trypsin/Ki thrombin” value at trypsin / thrombin amounted to 5.84.

On to `N=C(N)c1cccc(CN(NS(=O)(=O)c2ccc3ccccc3c2)C(=O)N2CCCCCC2)c1` [drawing 46], for which the inhibition constant Ki at human thrombin (human thrombin, S-2238, 25° C.) came to 5 nM; at trypsin it was 143 nM.

The molecule `Cl.N=C(N)c1cccc(CN(NS(=O)(=O)c2ccc3ccccc3c2)C(=O)N2CCCCCC2)c1` displayed a melting point of 151 to 154 °C. Turning to `COc1ccc2cc(S(=O)(=O)NN(Cc3cccc(C(=N)N)c3)C(=O)N3CCC(C)CC3)ccc2c1`, the PT in [3] was 2.7 µM. In addition, the TT in data set [4] amounted to 2.0 µM. The molecule further came in with a Ki on human thrombin (human thrombin, S-2238, 25° C.) of 11 nM. In [5], this molecule returned an aPTT of 2.1 µM.
